This note sets out measurements from patent publication US20080182877A1, “Rimonabant forms and methods of making the same” (priority 2007, published 2008).

Structures can show the parent of a compound that is named as a salt.

Holding throughout (format): physicochemical
Data set [1] in a line: Storage stability of solid forms at room temperature. The method, then:
In detail, rimonabant base may be isolated in a new solid state crystalline hydrate form, designated as the Form III. Form III is characterized by the XRPD spectrum having characteristic peaks at angles of around 9.29°, 10.49°, 13.52°, 15.25°, 17.78° using a 2-theta scale. […] The hydrated Form III is stable during storage at room temperature.
In general, a mixture of the hydrated Form III and the methanol solvate Form IV may be obtained after a crystallization of rimonabant base from a methanol solvent containing water. Mixtures of the hydrated Form III and the methanol solvate Form IV may also be obtained by crystallizing rimonabant base and rimonabant hydrochloride from methanol/water mixtures. A longer crystallization time, a slower cooling, and a lower solute concentration each generally promote the crystallization of Form III over Form IV. […] The methanolate Form IV is thus a thermodynamically unstable form. A mixture of Forms III and Form IV is also useful for making particulated amorphous rimonabant base.
Rimonabant base may also be isolated in a propanol solvate form, designated as the Form VI. Form VI is characterized by the following XRPD having characteristic peaks at angles of around 6.73°, 8.36°, 9.92°, 11.98°, 13.45°, 14.34°, 18.14°, 21.43°, 21.88°, 24.13°, 31.03° and 32.28° using a 2-theta scale. […] Instead, the known Form I of the crystalline anhydrous rimonabant is provided after a crystallization from 2-propanol. Form VI may be obtained by crystallizing rimonabant base from a 1-propanol solvent. For example, the crystallization may be induced by a slow evaporation of the 1-propanol solvent.

A short description of the next data set: Solubility in water. As to conditions: compared with the known Form I. The text has this: In general, only the hydrated Form III rimonabant is obtainable by a process employing water as the solvent. The other known solvent-free forms I and II are made by a process employing solely an organic solvent. The Form III is thus an advantageous form from technological and ecological reasons.

Data set [2] in a line: Thermal desolvation of hydrates/solvates by heating/drying. Particulars: among Form III, IV, V and VI; temperature higher than 80° C. preferable. The text has this: The conversion of any of the above hydrates and/or solvates, as well as mixtures thereof, to the particulated amorphous rimonabant base may be performed by a heating (drying) thereof at an enhanced temperature (e.g., higher than room temperature), preferably at diminished pressure (e.g., lower than atmospheric pressure). The transformation into the particulated amorphous rimonabant base may be accomplished by the fact that the crystalline lattice of any of the solvates and/or hydrates is thermally unstable and may collapse at an enhanced temperature without any further recrystallization into the most thermodynamically stable form of rimonabant, the Form I. Accordingly the Form I cannot apparently be converted into the amorphous form by such a simple transformation.
The fastest loss of the bound solvent in combination with amorphization occurs for the ethanol solvate, where the heating/drying of the product takes place at 60° C. or more, generally 60-80° C. Accordingly, the ethanol solvate can be used to obtain powderized amorphous rimonabant base. For other hydrates/solvates, e.g., for the methanolate Form IV, propanolate Form VI, hydrate Form III or hydrate Form V, a temperature higher than 80° C. is preferable to facilitate the conversion into the particulate amorphous rimonabant base. […]

The nature of data set [3]: Stability of the salt towards solvents (crystallization or stirring of a suspension). The text has this:
A known rimonabant solvate form, a rimonabant ethanol solvate, is disclosed in U.S. Pat. No. 5,624,941 (Example 212). According to U.S. Pat. No. 5,624,941, this ethanol solvate may be made by crystallizing rimonabant from ethanol. It has now been discovered that the same rimonabant ethanol solvate may be obtained by a novel solvent mediated transformation, such as by suspending and stirring the anhydrous rimonabant base in a liquid comprising ethanol. For example, the liquid may be an ethanol/water mixture, e.g. having a 3:1 (V/V) ratio. Also the crystallization of rimonabant hydrochloride from an ethanol/water mixture may provide for the known ethanolate of rimonabant base, which is another process not disclosed in the prior art and indicates the instability of rimonabant hydrochloride towards solvents comprising ethanol. As described more fully below, this ethanol solvate can be used to form amorphous rimonabant.
In this regard, the rimonabant salt can precipitate as the base, either by addition of a neutralizing base or spontaneously, and/or can precipitate as the salt and convert to the base by a solvent mediated transformation. Accordingly, stirring a suspension of rimonabant hydrochloride in a solvent comprising water (e.g. water/methanol=30:1 V/V) at ambient temperature provides for solvent-mediated polymorphic transformation yielding the Form III of rimonabant base. […]

As to `Cc1c(C(=O)NN2CCCCC2)nn(-c2ccc(Cl)cc2Cl)c1-c1ccc(Cl)cc1` [Form III, Rimonabant], the stability during storage result in data set [1] is on record as “stable”. The solubility in water result in “Solubility in water” is “same solubility in water as the known Form I”. Regarding `Cc1c(C(=O)NN2CCCCC2)nn(-c2ccc(Cl)cc2Cl)c1-c1ccc(Cl)cc1` [Form IV, Rimonabant], in data set [1] (in the presence of air humidity), the conversion during storage result is “may be converted into Form III”. With `Cc1c(C(=O)NN2CCCCC2)nn(-c2ccc(Cl)cc2Cl)c1-c1ccc(Cl)cc1` [Form VI, Rimonabant], the stability during storage entry in data set [1] is given as “sufficiently stable”. Moreover, the “relative stability to heating/drying (desolvation)” value in data set [2] is given as “most stable”. Take `Cc1c(C(=O)NN2CCCCC2)nn(-c2ccc(Cl)cc2Cl)c1-c1ccc(Cl)cc1` [rimonabant hydrochloride]: the “stability towards solvents comprising ethanol” value in data set [3] (crystallization from an ethanol/water mixture gives the ethanolate of the base) is “instability”. The “stability towards solvents comprising water” value in data set [3] (e.g. water/methanol 30:1 V/V, ambient temperature, yields Form III of the base) is given as “not stable”.
